Measured values as given in PMC11570312, “Development, optimization, and characterization of polymeric micelles to improve dasatinib oral bioavailability: Hep G2 cell cytotoxicity and in vivo pharmacokinetics for targeted liver cancer therapy” (Heliyon, 2024).

Experiments:
[1] = tested on: HepG2 cells; test: ROS estimation with flow cytometry (DCFDA); format: cell-based, human; details: HepG2, 24 h, Control 1 %
Experimental: Cells were seeded into six-well plates at densities ranging from 5000 to 10,000 HepG2 cells per well, using 1 mL of DMEM media supplemented with 10 % FBS and 1 % antibiotic solution. The plates were then incubated at 37 °C with 5 % CO2 for 24 h. Prior to treatment, the old culture medium was replaced with fresh medium, designating untreated cells as controls. Following the protocol by Gupta et al. cells were treated with various agents and further incubated for 24 h. After incubation, the medium was removed, and cells were detached using trypsin-EDTA, transferred to 1.5 mL tubes, and washed with 500 μl of cold PBS. The cell pellet was resuspended in 100 μl of PBS containing 2 μM DCFDA, and samples were incubated for 1 h before analysis using a BD FACS Calibur flow cytometer (USA). Data were processed using version 2.5.1 of the Flowing software program.

[2] = tested on: HepG2 cell lines; test: Cellular apoptosis with flow cytometry (Annexin V-FITC/PI); format: cell-based, human; details: HepG2, IC50 dose
Experimental: HepG2 cell lines, obtained from NCCS Pune, were cultured and treated with the compound's IC-50 dosage. Post-treatment, the cells were divided into five groups: unstained cells, control group, annexin-only, PI-only, and treatment. The cells were then resuspended in 1X binding buffer at a concentration of 1 × 10^6 cells/mL. FITC and PI from Annexin V were added to the appropriately labeled tubes. According to Zhan et al., 1X binding buffer was added to each tube, and they were incubated for 15 min at room temperature. The samples were analyzed using a BD FACS Lyric™ flow cytometer within an hour.

[3] = tested on: HepG2 cells; test: Cellular uptake (fluorescence microscopy, flow cytometry); format: cell-based, human; details: HepG2, 50 and 100 μg/mL DAS, 1 and 4 h
Experimental: The cellular uptake of DAS polymeric micelles was evaluated by examining the uptake of DAS by HepG2, hepatocellular carcinoma, and murine melanoma cells after exposure to free DAS and DAS-PMs micelles. Cells were visualized under a fluorescence microscope, and the DAS fluorescence intensity in treated cells was measured using flow cytometry. Fluorescent micrographs depicted HepG2 cells that had been treated with free DAS and DAS-PMs for durations of 0, 1, and 4 h. […] This rise was in comparison to the control group. However, DAS-PMs may quickly accumulate in HepG2 cells, as indicated by the vivid green fluorescence—even just 1 h after. When cells were treated with DAS-PMs for 4 h, the fluorescence intensity increased much more than after 1 h. At the 1- and 4-h time points, the fluorescence intensity in cells treated with 100 μg/mL of DAS in DAS-PMs was considerably higher than that in cells treated with 50 μg/mL of DAS. The dose- and time-dependent rise in fluorescence intensity was quantitatively evaluated using flow cytometry on HepG2 cell lines, as illustrated in Fig. 12.

[4] = In vitro release of dasatinib (dialysis bag); format: physicochemical; details: 12 h, pH 7.4, 37 °C
Experimental: To imitate the journey of polymeric micelles through the gastrointestinal tract, an in vitro drug release test was conducted. To simulate drug release from polymeric micelles, a release test was conducted using a phosphate buffer solution at pH 7.4 over 12 h, starting at the 0.5-h mark. The pH of human blood and most bodily tissues is roughly 7.4. Performing the release research at this pH allows us to forecast how dasatinib will behave once taken into the bloodstream and dispersed throughout the body. […] This information aids in evaluating how much of the drug can reach the systemic circulation for therapeutic activity. Each test was performed in a medium containing 0.5 % w/v Tween 20 to maintain sink conditions. A dialysis bag containing 1 mL of a freshly prepared dispersion of dasatinib-loaded micelles was sealed with clips and placed into a glass container filled with 90 mL of […]. This setup was incubated in a water bath set at 37 °C with agitation at 150 rotations per minute. At specified time intervals ([…]), 5 mL samples of the release medium were withdrawn and replaced with fresh medium to maintain volume consistency. The amount of drug released was measured by analyzing the UV absorbance of the samples at 323 nm. A standard curve for […] in each medium was used for the quantification. […]

[5] = In vivo pharmacokinetics; design: species or system Male Wistar rats; details: male, Wistar; for Cmax / Tmax: rat plasma
Experimental: Male Wistar rats, each weighing 200 ± 10 g, were obtained from the Experimental Animal Centre at NMIMS University. The study was conducted in accordance with the guidelines approved by the NMIMS University Animal Experimental Ethics Committee (protocol number SPTM/09/2023/IAEC/05). […] The total dose of DAS in two group was 5 mg/kg via intravenous. Blood samples (0.4 mL) were collected from the rats via intravenous injection at specified time intervals (0.5, 1, 2, 3, 4, 5, 6, 8, 10, and 12 h) and were immediately transferred into heparinized tubes. The samples were centrifuged at 12,000 rpm for 10 min to separate the plasma, which was then stored at −20 °C until analysis. The plasma samples were subsequently subjected to high-performance liquid chromatography (HPLC) to determine the concentration of dasatinib. The blood extraction process was conducted as follows: Initially, 15 μL of an internal standard solution (methanol, 10 μg/mL) was added to each tube containing 0.4 mL of blood, followed by vortexing for 1 min. Subsequently, 1 mL of acetonitrile was added, and the mixture was vortexed for an additional minute. The samples were then centrifuged at 12,000 rpm for 10 min. After centrifugation, the organic layer was carefully transferred to a sterile tube and evaporated under a gentle nitrogen stream. The dried extracts were reconstituted in 0.4 mL of a methanol/water solution (70/30, v/v) before undergoing high-performance liquid chromatography (HPLC) analysis. The pharmacokinetic parameters were calculated using the DAS 2.1.1 software (Shanghai, China).

[6] = tested on: HepG2 liver cell lines; test: In-vitro scratch assay; format: cell-based, human; details: HepG2, after 48 h of treatment
Source text: The aim of the in-vitro scratch test is to assess how effectively cancer cell growth is curbed.

[7] = tested on: HepG2 cells; test: Cell cycle analysis with flow cytometry; format: cell-based, human; details: HepG2, 24 h at IC50
Experimental: Specimens were placed on cells and incubated for 24 h. The cells that were not subjected to any treatment were the control cells. After the set incubation duration, trypsin was applied to detach the cells. Subsequently, the cells were gathered in a 1.5-mL vial and rinsed with 500 μL of chilled PBS [39]. A suspension of approximately 10^6 cells was prepared by gently vortexing 100 μL of PBS, resulting in a monodispersed cell suspension with minimal aggregation. The cells were then fixed by adding this solution to centrifuge tubes containing 900 μL of 70 % ethanol on ice, followed by incubation at 4 °C for at least 2 h. Cells can be stored in 70 % ethanol at 4 °C for several weeks. According to Sun et al. after centrifugation post-fixation, the cell pellet was resuspended in 500 μL of Propidium Iodide (PI) staining solution (0.1 % (v/v) Triton X-100, 10 μg/mL PI, and 100 μg/mL DNase-free RNaseA in PBS). The mixture was incubated in the dark for 30 min at room temperature or 10 min at 37 °C. Finally, samples were analyzed using a flow cytometer.

[8] = MTT/SRB cytotoxicity assay; format: cell-based; details: human, HepG2 cells; HepG2, after 48 h
Experimental: The MTT assay was performed to assess the cytotoxicity of the samples on the HepG2 cell line. Approximately 8000 cells per well were cultured in a 96-well plate for 24 h at 37 °C with 5 % CO2 in DMEM medium supplemented with 10 % FBS and 1 % antibiotic solution. The following day, cells were exposed to various dosages and concentrations ranging from 1 to 2500 μM, prepared using incomplete medium to achieve the desired concentrations. After a 24-h incubation period, 100 μL of 10 % trichloroacetic acid (TCA) was added to each well and incubated for 1 h. Then, the plate was washed with distilled water and allowed to dry at room temperature. MTT solution was added to each well at a final concentration of 0.04 % and was allowed to sit for 1 h. After an hour of incubation, the plate was air-dried at room temperature before being cleaned with 1 % (v/v) acetic acid to remove any remaining color. To solubilize the protein-bound dye, Tris base solution (pH = 10.5) was added to a well and shaken for 10 min on an orbital shaker. The protein-bound dye was then detected at 510 nm using an ELISA plate reader (iMark, Biorad, USA).
The cytotoxicity of the samples was evaluated using the HepG2 cell line, obtained from NCCS Pune, through the MTT assay. […] The results were measured at 540 nm and 660 nm using a Bio-Rad ELISA plate reader (USA). The IC50 value was calculated using GraphPad Prism 9 software. […]

[9] = plasma, rat, 5 mg/kg via intravenous

Cc1nc(Nc2ncc(C(=O)Nc3c(C)cccc3Cl)s2)cc(N2CCN(CCO)CC2)n1 [DAS, dasatinib]
ROS, MFI-positive cells [1]: 3.09% | early apoptotic cells ([2]; control 3.38 %): 0.6% | necrotic cells ([2]; control 13.28 %): 18.1% | late apoptotic cells ([2]; control 19.56 %): 72.4% | fluorescence intensity (cellular uptake) [3]: slight rise in fluorescence intensity | drug released [4]: 40% | Cmax ([5]; intravenous, 5 mg/kg): 12330 ± 60 ng/mL | Tmax ([5]; intravenous, 5 mg/kg): 2 h | MRT [5, 9]: 3.3 h | half-life [5, 9]: 4.08 ± 0.786 h | Cmax ([5]; 5 mg/kg via intravenous): 12300 ± 2310 ng/mL | Tmax ([5]; 5 mg/kg via intravenous): 2 h | cell migration (scratch wound) [6]: curbed cell migration | percentage of cells in G2 phase ([7]; control 18.14 %): 11.94% | percentage of cells in S phase ([7]; control 20.04 %): 14.22% | percentage of cells in G1 phase ([7]; control 58.18 %): 67.14% | viability at 48 h [8]: 12.2 ± 0.63%
